pIC50: −log10 of the molar value.
test system: Daudi cells; assay: Inhibition of human Daudi lymphoma cell proliferation (Cell-Titer Glo); type: cell-based; details: Homo sapiens, 72 h, 3 days incubation, read-out: Anti-Proliferative Activity Against Daudi cells IC50
Procedure: Introduction of the experimental principle: After the RAD51 inhibitor to be tested was co-incubated with cancer cells for a period of time, the influence of the test compound on cell proliferation was measured by a method for counting cell proliferation based on the quantitative measurement of intracellular ATP content.
Materials and Cells: Daudi cells were purchased from ATCC; fetal bovine serum, 1640 medium and penicillin-streptomycin were purchased from Gibco Inc. (U.S.), 96-well plates were purchased from Corning Inc. (U.S.), and Cell-Titer Glo reagent was purchased from Promega Corporation (U.S.).
Cell culture: Daudi cells were cultured in 1640 culture medium containing 10% fetal bovine serum and 1% penicillin-streptomycin at 37° C. in an atmosphere containing 5% CO2. Cells in logarithmic growth phase could be used for experiments.
Assay of cell proliferation and viability: Cell-Titer Glo reagent was used to measure the inhibitory activities of the compounds on the proliferation of Daudi cell strain. The concentration of cells was adjusted, and the cells were seeded in a 96-well plate and cultured at 37° C. in an atmosphere containing 5% CO2 for 24 hours. The powder of the compound was dissolved in 100% DMSO to form a 10 mM solution. 10 μl of the solution of the compound was aspirated and transferred into a 96-well compound plate containing 20 μl of DMSO solution for 3-fold dilution and was then formulated into 10 serial dilutions. Thereafter, 2 μl of the solution of the compound was aspirated from the corresponding well and added correspondingly into a 96-well intermediate compound dilution plate containing 78 μl of complete culture medium in each well. The resultant was mixed well, and the plate was centrifuged at 1000 rpm for 1 minute. Finally, 10 μl of the solution of the compound was aspirated from the corresponding well of the 96-well intermediate compound dilution plate, and transferred into the corresponding well of the cell culture plate containing 90 μl of complete culture medium. The final concentration of DMSO was 0.25%. After the addition of the compound, the cells were continued to be incubated for 3 days at 37° C. in an atmosphere containing 5% CO2. Cell-Titer Glo reagent was added to measure cell viability.
% Compound inhibition was calculated and IC50 of the compound was filled;
% Compound inhibition=1−100%×(Signal−Bottom)/(Top−Bottom)

Compound | pIC50
CC(C)OC(=O)N[C@H]1CC[C@H](c2ncc(-c3ccc(Nc4cccnc4)cc3S(=O)(=O)C3CC3)s2)CC1 [Example 76, isopropyl trans-N-[4-[5-[2-cyclopropylsulfonyl-4-(3-pyridylamino)phenyl]thiazol-2-yl]cyclohexyl]carbamate] | 8.05
Cc1ccc(Nc2ccc(-c3cnc(C4CCC(NC(=O)OC(C)C)CC4)s3)c(S(=O)(=O)C3CC3)c2)nc1 (stereo not drawn) [Example 77, isopropyl trans-(4-(5-(2-(cyclopropylsulfonyl)-4-((5-methylpyridin-2-ylamino)phenyl)thiazol-2-yl)cyclohexyl)carbamate] | 8.40
COc1ccc(Nc2ccc(-c3cnc([C@H]4CC[C@H](NC(=O)OC(C)C)CC4)s3)c(S(=O)(=O)C3CC3)c2)nc1 [Example 78, isopropyl trans-(4-(5-(2-(cyclopropylsulfonyl)-4-((5-methoxypyridin-2-yl)amino)phenyl)thiazol-2-yl)cyclohexyl)carbamate] | 8.40
CC(C)OC(=O)N[C@H]1CC[C@H](c2ncc(-c3ccc(Nc4ncccn4)cc3S(=O)(=O)C3CC3)s2)CC1 [Example 79, isopropyl trans-(4-(5-(2-(cyclopropylsulfonyl)-4-(pyrimidin-2-ylamino)phenyl)thiazol-2-yl)cyclohexyl)carbamate] | 7.29
Cc1cc(Nc2ccc(-c3ccc([C@H]4CC[C@H](NC(=O)OC(C)C)CC4)s3)c(S(=O)(=O)C3CC3)c2)n[nH]1 [Example 89, isopropyl trans-(4-(5-(2-(cyclopropylsulfonyl)-4-((5-methyl-1H-pyrazol-3-yl)amino)phenyl)thiophen-2-yl)cyclohexyl)carbamate] | 8.15
Cc1cc(Nc2ccc(-c3ccc([C@H]4CC[C@@H](NC(=O)OC(C)C)CC4)s3)c(S(=O)(=O)C3CC3)c2)n[nH]1 [Example 89-1, isopropyl cis-(4-(5-(2-(cyclopropylsulfonyl)-4-((5-methyl-1H-pyrazol-3-yl)amino)phenyl)thiophen-2-yl)cyclohexyl)carbamate] | 6.90
COc1ccc(Nc2ccc(-c3cnc([C@H]4CC[C@H](NC(=O)OC(C)C)CC4)s3)c(S(=O)(=O)C3CC3)c2)cn1 [Example 93, isopropyl trans-(4-(5-(2-(cyclopropylsulfonyl)-4-((6-methoxypyridin-3-yl)amino)phenyl)thiazol-2-yl)cyclohexyl)carbamate] | 8.00
CC(C)OC(=O)N[C@H]1CC[C@H](c2ncc(-c3ccc(Nc4ccc(=O)[nH]c4)cc3S(=N)(=O)C3CC3)s2)CC1 (stereo partly drawn) [Example 95, isopropyl trans-(4-(5-(2-(cyclopropanesulfonimidoyl)-4-((6-oxo-1,6-dihydropyridin-3-yl)amino)phenyl)thiazol-2-yl)cyclohexyl)carbamate] | 6.88
CC(C)OC(=O)N[C@H]1CC[C@H](c2ncc(-c3ccc(Nc4ccc(=O)[nH]c4)cc3S(=O)(=O)C3CC3)s2)CC1 [Example 96, isopropyl trans-(4-(5-(2-(cyclopropylsulfonyl)-4-((6-oxo-1,6-dihydropyridin-3-yl)amino)phenyl)thiazol-2-yl)cyclohexyl)carbamate] | 6.85
CN=S(=O)(c1cc(Nc2cc(C)[nH]n2)ccc1-c1cnc([C@H]2CC[C@H](NC(=O)OC(C)C)CC2)s1)C1CC1 (stereo partly drawn) [Example 97, isopropyl trans-(4-(5-(4-((5-methyl-1H-pyrazol-3-yl)amino)-2-(N-methylcyclopropanesulfonimidoyl)phenyl)thiazol-2-yl)cyclohexyl)carbamate] | 6.54
CC(C)OC(=O)N[C@H]1CC[C@H](c2ncc(-c3ccc(Nc4nnco4)cc3S(=N)(=O)C3CC3)s2)CC1 (stereo partly drawn) [Example 100, isopropyl trans-(4-(5-(4-((1,3,4-oxadiazol-2-yl)amino)-2-(cyclopropanesulfonimidoyl)phenyl)thiazol-2-yl)cyclohexyl)carbamate] | 6.17
CC(C)OC(=O)N[C@H]1CC[C@H](c2ncc(-c3ccc(Nc4cnn(CCF)c4)cc3S(=N)(=O)C3COC3)s2)CC1 (stereo partly drawn) [Example 106, isopropyl trans-N-[4-[5-[4-[[1-(2-fluoroethyl)pyrazol-4-yl]amino]-2-(oxetan-3-ylsulfonimidoyl)phenyl]thiazol-2-yl]cyclohexyl]carbamate] | 7.40
Cc1cc(Nc2ccc(-c3nc4c(s3)CCN(C(=O)OC(C)C)CC4)c(S(=O)(=O)C3CC3)c2)n[nH]1 [Example 108, isopropyl 2-(2-(cyclopropylsulfonyl)-4-((5-methyl-1H-pyrazol-3-yl)amino)phenyl)-7,8-dihydro-4H-thiazolo[4,5-d]aza-6(5H)-carboxylate] | 6.33
CC(C)OC(=O)N[C@H]1CC[C@H](c2ncc(-c3ccc(Nc4ccc(F)cn4)cc3S(=O)(=O)C3COC3)s2)CC1 [Example 112, isopropyl trans-N-[4-[5-[4-[(5-fluoro-2-pyridyl)amino]-2-(oxetan-3-ylsulfonyl)phenyl]thiazol-2-yl]cyclohexyl]carbamate] | 7.77

More lines, in order of rising pIC50, values ahead:

pIC50 | Compound
5.06 | Cc1cc(Nc2ccc(-c3cnc([C@H]4CC[C@H](NC(=O)OC(C)C)CC4)[nH]3)c(S(=O)(=O)C3CC3)c2)n[nH]1 [Example 90]
5.82 | Cc1cc(Nc2ccc(-c3ncc([C@H]4CC[C@H](NC(=O)OC(C)C)CC4)s3)c(S(=O)(=O)C3CC3)c2)n[nH]1 [Example 91, isopropyl trans-(4-(2-(2-(cyclopropylsulfonyl)-4-((5-methyl-1H-pyrazol-3-yl)amino)phenyl)thiazol-5-yl)cyclohexyl)carbamate]
6.15 | CCNC(=O)c1ccc(-c2cnc([C@H]3CC[C@H](NC(=O)OC(C)C)CC3)s2)c(S(=O)(=O)C2CC2)c1 [Example 111, isopropyl trans-(4-(5-(2-(cyclopropylsulfonyl)-4-(ethylcarbamoyl)phenyl)thiazol-2-yl)cyclohexyl)carbamate]
6.48 | CC(C)OC(=O)NC1CCC(c2ncc(-c3ccc(Nc4ncncn4)cc3S(=O)(=O)C3CC3)s2)CC1 (stereo not drawn) [Example 80, isopropyl trans-N-[4-[5-[2-cyclopropylsulfonyl]-4-(1,3,5-triazin-2-ylamino)phenyl]thiazol-2-yl]cyclohexyl]carbamate]
6.54 | CC(C)OC(=O)N[C@H]1CC[C@H](c2ncc(-c3ccc(-n4cccn4)cc3S(=O)(=O)C3CC3)s2)CC1 [Example 87, isopropyl trans-N-[4-[5-(2-cyclopropylsulfonyl-4-pyrazol-1-yl-phenyl)thiazol-2-yl]cyclohexyl]carbamate]
6.56 | Cc1cc(Nc2ccc(-c3nc4c(s3)CC(NC(=O)OC(C)C)CC4)c(S(=O)(=O)C3CC3)c2)n[nH]1 (centres unmarked) [Example 107, isopropyl (2-(2-(cyclopropylsulfonyl)-4-((5-methyl-1H-pyrazol-3-yl)amino)phenyl)-4,5,6,7-tetrahydrobenzo[d]thiazol-6-yl)carbamate]
6.60 | CC(C)OC(=O)N[C@H]1CC[C@H](c2ncc(-c3ccc(Nc4ccc(C(F)(F)F)cn4)cc3S(=N)(=O)C3CC3)s2)CC1 (some centres unmarked) [Example 82]
6.70 | CC(C)OC(=O)N[C@H]1CC[C@H](c2ncc(-c3ccc(Oc4ccccn4)cc3S(=O)(=O)C3CC3)s2)CC1 [Example 83, isopropyl trans-(4-(5-(2-(cyclopropylsulfonyl)-4-(pyridin-2-yloxy)phenyl)thiazol-2-yl)cyclohexyl)carbamate]
7.12 | Cc1cc(Nc2ccc(-c3cnc(N4CC5C(C4)C5NC(=O)OC(C)C)s3)c(S(=O)(=O)C3CC3)c2)n[nH]1 (centres unmarked) [Example 109, isopropyl (3-(5-(2-(cyclopropylsulfonyl)-4-((5-methyl-1H-pyrazol-3-yl)amino)phenyl)thiazol-2-yl)-3-azabicyclo[3.1.0]hexanone-6-yl)carbamate]
7.22 | Cc1cc(Nc2ccc(-c3ncc([C@H]4CC[C@@H](NC(=O)OC(C)C)CC4)s3)c(S(=O)(=O)C3CC3)c2)n[nH]1 [Example 91-1, isopropyl cis-(4-(2-(2-(cyclopropylsulfonyl)-4-((5-methyl-1H-pyrazol-3-yl)amino)phenyl)thiazol-5-yl)cyclohexyl)carbamate]
7.44 | CC(C)OC(=O)N[C@H]1CC[C@H](c2ncc(-c3ccc(Nc4ncco4)cc3S(=N)(=O)C3CC3)s2)CC1 (stereo partly drawn) [Example 99, isopropyl trans-(4-(5-(2-(cyclopropanesulfonimidoyl)-4-(oxazol-2-ylamino)phenyl)thiazol-2-yl)cyclohexyl)carbamate]
7.59 | Cc1cc(Nc2ccc(-c3cnc([C@H]4CC[C@H](NC(=O)OC(C)C)CC4)s3)c(S(=N)(=O)C3COC3)c2)n[nH]1 (stereo partly drawn) [Example 105, isopropyl trans-N-[4-[5-[4-[(5-methyl-1H-pyrazol-3-yl)amino]-2-(oxetan-3-ylsulfonimidoyl)phenyl]thiazol-2-yl]cyclohexyl]carbamate]

From patent US20230142274A1 (SIMCERE PHARMACEUTICAL CO., LTD., priority 2020, published 2023)
